2 molecules from US6608174B1, “Radiolabeled vasoactive intestinal peptide analogs for diagnosis and radiotherapy” (Dabur Research Foundation, priority 2000, dated 2003) can be followed below.

Where two headings read alike, the source gives them in different places. Square brackets hold non-standard residues; d marks the D form. Ends that are not written are not given here. dPhe(4-Cl) = N[C@H](Cc1ccc(Cl)cc1)C(=O)O; Aib = CC(C)(N)C(=O)O

One may read the IC50 as the concentration needed to halve the response being measured. Read a low IC50 as inhibition by little substance.

The test system of one experiment is VIP receptors. As to the kind of experiment: Receptor binding and competition assay with 125I labeled peptide (SEQ ID NO:2) on human tumor cell lines. The settings on record: for Kd: 4-8° C. On the procedure:
In the practice of these methods, the peptide was radioiodinated using the iodogen method. Briefly, 5 μg of the peptide in 10 μl of 50 mM PBS (pH 7.5), an appropriate amount of the radioisotope and 50 μg-100 μg iodogen were incubated at room temperature for 15-30 min with occasional mixing. Radioiodinated peptide was purified from unincorporated radioactive iodine by purification on a Sep Pak C18 cartridge, essentially following the same procedure as described for technetium labeling. Receptor binding and competition assays were performed at 4-8° C. Briefly, 50,000 cells were plated per well of a 24 well plate and allowed to adhere overnight. Before the assay, the cells were washed twice with ice cold binding buffer (25 mM HEPES, 10 mM MgCl2 and 1% BSA in RPMI 1640 medium). The cells were incubated for 2-3 hrs with an appropriate concentration (0.1-10 nM) of the ^125I labeled peptide (SEQ ID NO:2), in the presence and absence of the cold ligand, which is the uniodinated form of the same peptide (1 nM-10 μM). After incubation, the cells were washed thrice with the binding buffer to remove the unbound peptide. The cells were lysed and counts were measured in a Gamma counter. From a comparison of the extent of binding in the presence or absence of the unlabeled peptide (SEQ ID NO:2), the dissociation constant (Kd) (TABLE I) and maximal binding (Bmax) (TABLE II) were calculated for the peptide. […] These characteristics are similar to what has been previously reported for VIP receptors. The following tumor cell lines were assayed using the above described binding competition assay: HT29 (human colorectal adenocarcinoma); PTC (human primary tumor cells adenocarcinoma); KB (human squamous cell carcinoma); 4451 (human squamous cell carcinoma); L132 (human lung carcinoma); A549 (human lung carcinoma); HBL100 (human breast carcinoma) and PA1 (human ovarian carcinoma). Cells were grown in RPMI 1640 supplemented with 10% fetal calf serum, glutamine and antibiotics using standard cell culture techniques (see Animal Cell Culture: A Practical Approach, Freshney, ed, IRL press: Oxford, UK, 1992).

Experiment [1] deals with high affinity (nM range), low surface expression receptor on human tumor cells (VIP receptor) (human). As to the kind of experiment: homologous radioligand competition, 125I-SEQ ID NO:2 on A549 cells. A general note: Displacement assays read how much labelled ligand stays bound in the presence of the test substance.
Experiment [2] has as its target VIP receptors on human tumor cell lines (human). Put plainly: displacement of 125I labeled VIP on KB cells.
Experiment [3] has as its target low affinity (µM range), high surface expression receptor on human tumor cells (VIP receptor) (human). As to the kind of experiment: maximal binding, 125I-SEQ ID NO:2 on PTC cells.
Experiment [4] deals with high affinity (nM range), low surface expression receptor on human tumor cells (VIP receptor) (human). As to the kind of experiment: maximal binding, 125I-SEQ ID NO:2 on PTC cells.

For “His-Ser-Asp-Aib-Val-4-Cl-D-Phe-Thr-Asp-Asn-Tyr-Thr-Arg-Leu-Arg-Lys-Gln-Leu-Ala-Val-Lys-Lys-Tyr-Leu-Asn-Ser-Ile-Leu-Asn-NH2 (HSD[Aib]V[dPhe(4-Cl)]TDNYTRLRKQLAVKKYLNSILN-NH2; N-terminus assumed; SMILES CC[C@H](C)[C@H](NC(=O)[C@H](CO)NC(=O)[C@H](CC(N)=O)NC(=O)[C@H](CC(C)C)NC(=O)[C@H](Cc1ccc(O)cc1)NC(=O)[C@H](CCCCN)NC(=O)[C@H](CCCCN)NC(=O)[C@@H](NC(=O)[C@H](C)NC(=O)[C@H](CC(C)C)NC(=O)[C@H](CCC(N)=O)NC(=O)[C@H](CCCCN)NC(=O)[C@H](CCCNC(=N)N)NC(=O)[C@H](CC(C)C)NC(=O)[C@H](CCCNC(=N)N)NC(=O)[C@@H](NC(=O)[C@H](Cc1ccc(O)cc1)NC(=O)[C@H](CC(N)=O)NC(=O)[C@H](CC(=O)O)NC(=O)[C@@H](NC(=O)[C@@H](Cc1ccc(Cl)cc1)NC(=O)[C@@H](NC(=O)C(C)(C)NC(=O)[C@H](CC(=O)O)NC(=O)[C@H](CO)NC(=O)[C@@H](N)Cc1c[nH]cn1)C(C)C)[C@@H](C)O)[C@@H](C)O)C(C)C)C(=O)N[C@@H](CC(C)C)C(=O)N[C@@H](CC(N)=O)C(N)=O) [SEQ ID NO:2, VIP receptor antagonist, preferred peptide (Xxx = Aib)]”, the “Bmax1 (maximal binding)” value was 579 pM in the experiment with VIP receptors (4451 cells, high affinity receptor); 540 pM in the experiment on VIP receptors (A549 cells, high affinity receptor); 697 pM in the experiment with VIP receptors (HBL 100 cells, high affinity receptor); 367 pM with VIP receptors (HT29 cells, high affinity receptor); 602 pM with VIP receptors (KB cells, high affinity receptor); 306 pM with VIP receptors (L132 cells, high affinity receptor). The “Bmax1 (maximal binding)” value with VIP receptors (PAI cells, high affinity receptor) amounted to 529 pM; in the experiment on VIP receptors (PTC cells, high affinity receptor), 830 pM. Besides, the Kd came to 4.48 nM in the experiment on VIP receptors (4451 cells, high affinity receptor, read-out: Kd1); 1910 nM in the experiment with VIP receptors (4451 cells, low affinity receptor, read-out: Kd2); 2.09 nM in the experiment on VIP receptors (A549 cells, high affinity receptor, read-out: Kd1); 1530 nM in the experiment on VIP receptors (A549 cells, low affinity receptor, read-out: Kd2); 2.13 nM with VIP receptors (HBL 100 cells, high affinity receptor, read-out: Kd1); 1600 nM in the experiment on VIP receptors (HBL 100 cells, low affinity receptor, read-out: Kd2). Besides, the Kd in the experiment with VIP receptors (HT29 cells, high affinity receptor, read-out: Kd1) was 3.8 nM; in the experiment with VIP receptors (HT29 cells, low affinity receptor, read-out: Kd2) it was 1370 nM; in the experiment on VIP receptors (KB cells, high affinity receptor, read-out: Kd1), 4.2 nM; with VIP receptors (KB cells, low affinity receptor, read-out: Kd2), 1840 nM; in the experiment with VIP receptors (L132 cells, high affinity receptor, read-out: Kd1) it was 2.6 nM; in the experiment on VIP receptors (L132 cells, low affinity receptor, read-out: Kd2), 1030 nM. Also, the Kd with VIP receptors (PA1 cells, high affinity receptor, read-out: Kd1) worked out at 5.6 nM; in the experiment on VIP receptors (PA1 cells, low affinity receptor, read-out: Kd2), 1890 nM; with VIP receptors (PTC cells, high affinity receptor, read-out: Kd1) it was 1.77 nM; in the experiment on VIP receptors (PTC cells, low affinity receptor, read-out: Kd2), 1180 nM. Further, the “Bmax2 (maximal binding)” value was found to be 51 nM with VIP receptors (4451 cells, low affinity receptor); 48.3 nM in the experiment on VIP receptors (A549 cells, low affinity receptor); 69.1 nM in the experiment on VIP receptors (HBL 100 cells, low affinity receptor); 67.2 nM in the experiment on VIP receptors (HT29 cells, low affinity receptor); 42.9 nM in the experiment on VIP receptors (KB cells, low affinity receptor); 45.8 nM with VIP receptors (L132 cells, low affinity receptor). Also, the “Bmax2 (maximal binding)” value with VIP receptors (PAI cells, low affinity receptor) is 47.7 nM; in the experiment with VIP receptors (PTC cells, low affinity receptor), 96.6 nM. In addition, the “kinds of receptors bound on the cell surface” value in the experiment with VIP receptors (one high affinity (nM range), low expression, one low affinity, high expression) is listed as “bound to two kinds of receptors on the cell surface”.
Molecule HSD[Aib]V[dPhe(4-Cl)]TDNYTRLRKQLAVKKYLNSILN-NH2 (also: 125I-labelled form (iodogen) used as tracer) gave a Kd in experiment [1] of 2.09 nM. In addition, in experiment [2], the IC50 turned out to be 6.2 nM. The Bmax2 in experiment [3] came to 96.6 nM. This molecule displayed a Bmax1 in experiment [4] of 830 pM.
